These are literature values, as cited in patent publication US20140065213A1, “Sustained Release Paracetamol Formulations” (GlaxoSmithKline, LLC, priority 2011, published 2014).

Consider `CC(=O)Nc1ccc(O)cc1` [paracetamol, N-acetyl-p-aminophenol], for which the “tmax (maximum plasma concentration)” value (oral doses of conventional immediate release tablets) was 0.5 to 1.5 h. The elimination half-life (reported) was 1.9 to 2.5 h.
